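Values below derive from 48-hour exposures of cells grown in 96-well plates, with endpoints linearly interpolated between the two concentrations bracketing the appropriate inhibition level. TGI: concentration producing complete growth inhibition.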
Key:
Test in all cases: NCI tumour cell line growth inhibition, 48 h
HCT-116 colon = test system: HCT-116 colon
LOX IMVI melanoma = test system: LOX IMVI melanoma
SR leukemia = test system: SR leukemia
PC-3 prostate = test system: PC-3 prostate
KM12 colon = test system: KM12 colon
SF-295 CNS = test system: SF-295 CNS
NCI-H460 lung = test system: NCI-H460 lung
OVCAR-4 ovarian = test system: OVCAR-4 ovarian
UO-31 renal = test system: UO-31 renal
A549 NSCLC = test system: A549 NSCLC
RXF 393 renal = test system: RXF 393 renal
CCRF-CEM leukemia = test system: CCRF-CEM leukemia
T-47D breast = test system: T-47D breast
EKVX NSCLC = test system: EKVX NSCLC
SW-620 colon = test system: SW-620 colon
U251 CNS = test system: U251 CNS
HCT-15 colon = test system: HCT-15 colon
SF-268 CNS = test system: SF-268 CNS
RPMI-8226 leukemia = test system: RPMI-8226 leukemia
TK-10 renal = test system: TK-10 renal
OVCAR-5 ovarian = test system: OVCAR-5 ovarian
ACHN renal = test system: ACHN renal
K-562 leukemia = test system: K-562 leukemia
M14 melanoma = test system: M14 melanoma
NCI-H226 lung = test system: NCI-H226 lung
SN12C renal = test system: SN12C renal
MDA-N = test system: MDA-N
CAKI-1 renal = test system: CAKI-1 renal
MCF7 breast = test system: MCF7 breast
NCI-H23 lung = test system: NCI-H23 lung
SK-MEL-2 melanoma = test system: SK-MEL-2 melanoma
BT-549 breast = test system: BT-549 breast
HL-60(TB) leukemia = test system: HL-60(TB) leukemia
MDA-MB-231 breast = test system: MDA-MB-231 breast
UACC-257 melanoma = test system: UACC-257 melanoma
NCI/ADR-RES ovarian = test system: NCI/ADR-RES ovarian
COLO 205 colon = test system: COLO 205 colon
MALME-3M melanoma = test system: MALME-3M melanoma
786-0 renal = test system: 786-0 renal
HCC-2998 colon = test system: HCC-2998 colon
MOLT-4 leukemia = test system: MOLT-4 leukemia
OVCAR-8 ovarian = test system: OVCAR-8 ovarian
HOP-62 NSCLC = test system: HOP-62 NSCLC
NCI-H522 lung = test system: NCI-H522 lung
OVCAR-3 ovarian = test system: OVCAR-3 ovarian
DU-145 prostate = test system: DU-145 prostate
HT29 colon = test system: HT29 colon
HOP-92 NSCLC = test system: HOP-92 NSCLC
SNB-19 CNS = test system: SNB-19 CNS
MDA-MB-435 = test system: MDA-MB-435
SK-MEL-28 melanoma = test system: SK-MEL-28 melanoma
IGROV1 ovarian = test system: IGROV1 ovarian
SF-539 CNS = test system: SF-539 CNS
UACC-62 melanoma = test system: UACC-62 melanoma
SK-MEL-5 melanoma = test system: SK-MEL-5 melanoma
SK-OV-3 ovarian = test system: SK-OV-3 ovarian
SNB-75 CNS = test system: SNB-75 CNS
A498 renal = test system: A498 renal
HS 578T breast = test system: HS 578T breast

SMILES: CC(C)(/C=N\O)NO
- TGI (HCT-116 colon): > 10 µM
- TGI (LOX IMVI melanoma): > 10 µM
- TGI (SR leukemia): > 10 µM
- TGI (PC-3 prostate): > 10 µM
- TGI (KM12 colon): > 10 µM
- TGI (SF-295 CNS): > 10 µM
- TGI (NCI-H460 lung): > 10 µM
- TGI (OVCAR-4 ovarian): > 10 µM
- TGI (UO-31 renal): > 10 µM
- TGI (A549 NSCLC): > 10 µM
- TGI (RXF 393 renal): > 10 µM
- TGI (CCRF-CEM leukemia): > 10 µM
- TGI (T-47D breast): > 10 µM
- TGI (EKVX NSCLC): > 10 µM
- TGI (SW-620 colon): > 10 µM
- TGI (U251 CNS): > 10 µM
- TGI (HCT-15 colon): > 10 µM
- TGI (SF-268 CNS): > 10 µM
- TGI (RPMI-8226 leukemia): > 10 µM
- TGI (TK-10 renal): > 10 µM
- TGI (OVCAR-5 ovarian): > 10 µM
- TGI (ACHN renal): > 10 µM
- TGI (K-562 leukemia): > 10 µM
- TGI (M14 melanoma): > 10 µM
- TGI (NCI-H226 lung): > 10 µM
- TGI (SN12C renal): > 10 µM
- TGI (MDA-N): > 10 µM
- TGI (CAKI-1 renal): > 10 µM
- TGI (MCF7 breast): > 10 µM
- TGI (NCI-H23 lung): > 10 µM
- TGI (SK-MEL-2 melanoma): > 10 µM
- TGI (BT-549 breast): > 10 µM
- TGI (HL-60(TB) leukemia): > 10 µM
- TGI (MDA-MB-231 breast): > 10 µM
- TGI (UACC-257 melanoma): > 10 µM
- TGI (NCI/ADR-RES ovarian): > 10 µM
- TGI (COLO 205 colon): > 10 µM
- TGI (MALME-3M melanoma): > 10 µM
- TGI (786-0 renal): > 10 µM
- TGI (HCC-2998 colon): > 10 µM
- TGI (MOLT-4 leukemia): > 10 µM
- TGI (OVCAR-8 ovarian): > 10 µM
- TGI (HOP-62 NSCLC): > 10 µM
- TGI (NCI-H522 lung): > 10 µM
- TGI (OVCAR-3 ovarian): > 10 µM
- TGI (DU-145 prostate): > 10 µM
- TGI (HT29 colon): > 10 µM
- TGI (HOP-92 NSCLC): > 10 µM
- TGI (SNB-19 CNS): > 10 µM
- TGI (MDA-MB-435): > 10 µM

SMILES: COc1cc(Br)cc2cc(C3=CSC4=NCCN34)c(=O)oc12
- TGI (HCT-116 colon): 32.2 µM
- TGI (LOX IMVI melanoma): 33.7 µM
- TGI (SR leukemia): 63.4 µM
- TGI (PC-3 prostate): 35.6 µM
- TGI (KM12 colon): 39 µM
- TGI (SF-295 CNS): 35.8 µM
- TGI (NCI-H460 lung): 40.3 µM
- TGI (OVCAR-4 ovarian): 37.2 µM
- TGI (SK-MEL-28 melanoma): 59.4 µM
- TGI (UO-31 renal): 35.6 µM
- TGI (A549 NSCLC): 50.8 µM
- TGI (RXF 393 renal): 34.6 µM
- TGI (CCRF-CEM leukemia): 56.8 µM
- TGI (T-47D breast): 42.2 µM
- TGI (EKVX NSCLC): 32.3 µM
- TGI (SW-620 colon): 49.1 µM
- TGI (U251 CNS): 32.6 µM
- TGI (HCT-15 colon): 37.2 µM
- TGI (RPMI-8226 leukemia): 55.3 µM
- TGI (TK-10 renal): 34.8 µM
- TGI (OVCAR-5 ovarian): 54.5 µM
- TGI (IGROV1 ovarian): 32.5 µM
- TGI (ACHN renal): 80.6 µM
- TGI (K-562 leukemia): > 100 µM
- TGI (M14 melanoma): 49.4 µM
- TGI (SF-539 CNS): 37.4 µM
- TGI (SN12C renal): 32 µM
- TGI (MDA-N): 34.4 µM
- TGI (CAKI-1 renal): > 100 µM
- TGI (MCF7 breast): 33 µM
- TGI (NCI-H23 lung): 40.8 µM
- TGI (SK-MEL-2 melanoma): 40 µM
- TGI (BT-549 breast): 42.2 µM
- TGI (HL-60(TB) leukemia): 77.6 µM
- TGI (MDA-MB-231 breast): 36 µM
- TGI (UACC-257 melanoma): 65.8 µM
- TGI (NCI/ADR-RES ovarian): > 100 µM
- TGI (COLO 205 colon): 43.5 µM
- TGI (UACC-62 melanoma): 33.6 µM
- TGI (SK-MEL-5 melanoma): 35.3 µM
- TGI (786-0 renal): 32.7 µM
- TGI (MOLT-4 leukemia): 69.5 µM
- TGI (OVCAR-8 ovarian): 34.4 µM
- TGI (HOP-62 NSCLC): 34.9 µM
- TGI (OVCAR-3 ovarian): 33.1 µM
- TGI (DU-145 prostate): 33 µM
- TGI (SK-OV-3 ovarian): 66.2 µM
- TGI (HT29 colon): 34.7 µM
- TGI (HOP-92 NSCLC): 36.7 µM
- TGI (SNB-19 CNS): 33.4 µM
- TGI (MDA-MB-435): 33.9 µM
- TGI (SNB-75 CNS): 43.3 µM

SMILES: CCOC(=O)CCC(C(=O)OCC)n1nnc2ccc(Nc3c(C)[n+]([O-])c4ccc(Cl)cc4[n+]3[O-])cc21 (stereo not drawn)
- TGI (HCT-116 colon): > 100 µM
- TGI (LOX IMVI melanoma): > 100 µM
- TGI (SR leukemia): > 100 µM
- TGI (PC-3 prostate): > 100 µM
- TGI (KM12 colon): > 100 µM
- TGI (SF-295 CNS): > 100 µM
- TGI (NCI-H460 lung): > 100 µM
- TGI (OVCAR-4 ovarian): > 100 µM
- TGI (UO-31 renal): > 100 µM
- TGI (A549 NSCLC): > 100 µM
- TGI (RXF 393 renal): > 100 µM
- TGI (CCRF-CEM leukemia): > 100 µM
- TGI (T-47D breast): > 100 µM
- TGI (EKVX NSCLC): 69.3 µM
- TGI (SW-620 colon): > 100 µM
- TGI (U251 CNS): > 100 µM
- TGI (HCT-15 colon): > 100 µM
- TGI (SF-268 CNS): > 100 µM
- TGI (A498 renal): > 100 µM
- TGI (RPMI-8226 leukemia): 88.3 µM
- TGI (TK-10 renal): > 100 µM
- TGI (OVCAR-5 ovarian): > 100 µM
- TGI (HS 578T breast): > 100 µM
- TGI (IGROV1 ovarian): > 100 µM
- TGI (ACHN renal): > 100 µM
- TGI (K-562 leukemia): > 100 µM
- TGI (M14 melanoma): > 100 µM
- TGI (SF-539 CNS): > 100 µM
- TGI (NCI-H226 lung): 83.7 µM
- TGI (SN12C renal): > 100 µM
- TGI (MDA-N): > 100 µM
- TGI (CAKI-1 renal): > 100 µM
- TGI (MCF7 breast): 50.4 µM
- TGI (NCI-H23 lung): > 100 µM
- TGI (SK-MEL-2 melanoma): > 100 µM
- TGI (BT-549 breast): > 100 µM
- TGI (HL-60(TB) leukemia): > 100 µM
- TGI (UACC-257 melanoma): 37.1 µM
- TGI (NCI/ADR-RES ovarian): > 100 µM
- TGI (COLO 205 colon): > 100 µM
- TGI (UACC-62 melanoma): > 100 µM
- TGI (SK-MEL-5 melanoma): > 100 µM
- TGI (MALME-3M melanoma): > 100 µM
- TGI (786-0 renal): > 100 µM
- TGI (MOLT-4 leukemia): > 100 µM
- TGI (OVCAR-8 ovarian): > 100 µM
- TGI (HOP-62 NSCLC): > 100 µM
- TGI (NCI-H522 lung): > 100 µM
- TGI (OVCAR-3 ovarian): > 100 µM
- TGI (DU-145 prostate): > 100 µM
- TGI (SK-OV-3 ovarian): > 100 µM
- TGI (HT29 colon): > 100 µM
- TGI (HOP-92 NSCLC): > 100 µM
- TGI (SNB-19 CNS): > 100 µM
- TGI (MDA-MB-435): > 100 µM
- TGI (SNB-75 CNS): > 100 µM

— PubChem BioAssay (NCI)
